Data as given in patent US10294202B2, “Pyrrolidinones as herbicides” (FMC Corporation, priority 2013, dated 2019).

Columns and labels:
crabgrass, large = assay: Test A pre-/postemergence herbicide test; assay type: in vivo, Digitaria sanguinalis
Summary of the method: (§1)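 Both application timings used compounds in a non-phytotoxic solvent plus surfactant. Pre-emergence: soil sprayed directly after seeding into loam/sand. Post-emergence: foliage of 2–10 cm seedlings (1–2 leaves) sprayed. Injury rated ~10 days later, 0–100.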

sedge, umbrella [1] = assay: Test C flooded paddy test; assay type: in vivo, Cyperus difformis; conditions: Flood
Summary of the method: (§2)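 Visual injury scored against controls after 13 to 15 days in the greenhouse, using 0 (no effect) to 100 (complete control). Test compounds went straight into paddy water held 3 cm above the soil surface on 2-leaf-stage plants, with that flood depth maintained for the whole test.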

rice [2] = assay: Test B flooded paddy test; assay type: in vivo, Oryza sativa; conditions: 250 g ai/ha, Flood; scale of 0 to 100 where 0 is no effect and 100 is complete control
Summary of the method: (§3)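 First, plants reach the 2-leaf stage; next, pots are flooded to 3 cm and compound is delivered into the water; finally, after 13 to 15 greenhouse days at constant depth, injury is graded visually from 0 to 100 against controls.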

ducksalad [3] = assay: Test B flooded paddy test; assay type: in vivo, Heteranthera limosa; conditions: 250 g ai/ha, Flood; scale of 0 to 100 where 0 is no effect and 100 is complete control
Summary of the method: as §3

corn = assay: Test A pre-/postemergence herbicide test; assay type: in vivo, Zea mays
Summary of the method: as §1

morningglory = assay: Test A pre-/postemergence herbicide test; assay type: in vivo, Ipomoea spp.
Summary of the method: as §1

barnyardgrass [4] = assay: Test B flooded paddy test; assay type: in vivo, Echinochloa crus-galli; conditions: 250 g ai/ha, Flood; scale of 0 to 100 where 0 is no effect and 100 is complete control
Summary of the method: as §3

barnyardgrass [5] = assay: Test C flooded paddy test; assay type: in vivo, Echinochloa crus-galli; conditions: Flood
Summary of the method: as §2

barnyardgrass [6] = assay: Test A pre-/postemergence herbicide test; assay type: in vivo, Echinochloa crus-galli
Summary of the method: as §1

sedge, umbrella [7] = assay: Test B flooded paddy test; assay type: in vivo, Cyperus difformis; conditions: 250 g ai/ha, Flood; scale of 0 to 100 where 0 is no effect and 100 is complete control
Summary of the method: as §3

wheat = assay: Test A pre-/postemergence herbicide test; assay type: in vivo, Triticum aestivum
Summary of the method: as §1

giant foxtail = assay: Test A pre-/postemergence herbicide test; assay type: in vivo, Setaria faberii
Summary of the method: as §1

pigweed = assay: Test A pre-/postemergence herbicide test; assay type: in vivo, Amaranthus retroflexus
Summary of the method: as §1

velvetleaf = assay: Test A pre-/postemergence herbicide test; assay type: in vivo, Abutilon theophrasti
Summary of the method: as §1

rice [8] = assay: Test C flooded paddy test; assay type: in vivo, Oryza sativa; conditions: Flood
Summary of the method: as §2

ducksalad [9] = assay: Test C flooded paddy test; assay type: in vivo, Heteranthera limosa; conditions: Flood
Summary of the method: as §2

[10] = Postemergence, 125 g ai/ha, 0 to 100 scale, 0 no effect, 100 complete control
[11] = Postemergence, 500 g ai/ha, 0 to 100 scale (0 no effect, 100 complete control)
[12] = Preemergence, 125 g ai/ha, visual rating on 0 to 100 scale (0 no effect, 100 complete control)
[13] = preemergence, 500 g ai/ha, 0 to 100 scale
[14] = 125 g ai/ha, scale of 0 to 100 where 0 is no effect and 100 is complete control, 13 to 15 days

O=C1NCC(c2ccc(Cl)cc2)C1C(=O)Nc1ccccc1F (racemic) [Compound 87]
Plant response rating, Crabgrass, Large (crabgrass, large; [10]): 60
Plant response rating, Crabgrass, Large (crabgrass, large; [11]): 80
Crabgrass, Large plant response rating (crabgrass, large; [12]): 80
Plant response rating, Crabgrass, Large (crabgrass, large; [13]): 90
Plant response rating, Sedge, Umbrella (sedge, umbrella [1]; [14]): 0
Plant response rating, Sedge, Umbrella (sedge, umbrella [1]; 250 g ai/ha, scale 0 to 100): 0
Plant response rating, Sedge, Umbrella (sedge, umbrella [1]; 500 g ai/ha, scale 0 to 100): 0
Plant response rating, Sedge, Umbrella (sedge, umbrella [1]; 1000 g ai/ha, scale 0 to 100): 0
Plant response rating, Rice (rice [2]): 0
Plant response rating, Ducksalad (ducksalad [3]): 80
Plant response rating, Corn (corn; [10]): 0
Plant response rating, Corn (corn; [11]): 0
Corn plant response rating (corn; [12]): 0
Plant response rating, Corn (corn; [13]): 0
Plant response rating, Morningglory (morningglory; [10]): 0
Plant response rating, Morningglory (morningglory; [11]): 10
Morningglory plant response rating (morningglory; [12]): 0
Plant response rating, Morningglory (morningglory; [13]): 0
Plant response rating, Barnyardgrass (barnyardgrass [4]): 60
Plant response rating, Barnyardgrass (barnyardgrass [5]; [14]): 0
Plant response rating, Barnyardgrass (barnyardgrass [5]; 250 g ai/ha, scale 0 to 100): 0
Plant response rating, Barnyardgrass (barnyardgrass [5]; 500 g ai/ha, scale 0 to 100): 25
Plant response rating, Barnyardgrass (barnyardgrass [5]; 1000 g ai/ha, scale 0 to 100): 40
Plant response rating, Barnyardgrass (barnyardgrass [6]; [10]): 50
Plant response rating, Barnyardgrass (barnyardgrass [6]; [11]): 80
Barnyardgrass plant response rating (barnyardgrass [6]; [12]): 20
Plant response rating, Barnyardgrass (barnyardgrass [6]; preemergence, 500 g ai/ha, 0 to 100 scale (0 no effect, 100 complete control)): 80
Plant response rating, Sedge, Umbrella (sedge, umbrella [7]): 0
Plant response rating, Wheat (wheat; [10]): 0
Plant response rating, Wheat (wheat; [11]): 20
Wheat plant response rating (wheat; [12]): 0
Plant response rating, Wheat (wheat; [13]): 10
Plant response rating, Foxtail, Giant (giant foxtail; [10]): 50
Plant response rating, Foxtail, Giant (giant foxtail; [11]): 80
Foxtail, Giant plant response rating (giant foxtail; [12]): 60
Plant response rating, Foxtail, Giant (giant foxtail; [13]): 90
Plant response rating, Pigweed (pigweed; [10]): 0
Plant response rating, Pigweed (pigweed; [11]): 20
Pigweed plant response rating (pigweed; [12]): 0
Plant response rating, Pigweed (pigweed; [13]): 0
Plant response rating, Velvetleaf (velvetleaf; [10]): 0
Plant response rating, Velvetleaf (velvetleaf; [11]): 0
Velvetleaf plant response rating (velvetleaf; [12]): 0
Plant response rating, Velvetleaf (velvetleaf; [13]): 0
Plant response rating, Rice (rice [8]; [14]): 0
Plant response rating, Rice (rice [8]; 250 g ai/ha, scale 0 to 100): 0
Plant response rating, Rice (rice [8]; 500 g ai/ha, scale 0 to 100): 0
Plant response rating, Rice (rice [8]; 1000 g ai/ha, scale 0 to 100): 30
Plant response rating, Ducksalad (ducksalad [9]; [14]): 75
Plant response rating, Ducksalad (ducksalad [9]; 250 g ai/ha, scale 0 to 100): 95
Plant response rating, Ducksalad (ducksalad [9]; 500 g ai/ha, scale 0 to 100): 100
Plant response rating, Ducksalad (ducksalad [9]; 1000 g ai/ha, scale 0 to 100): 100
